In brackets after ≈: the same amount, converted by molar mass.
Experiments:
[1] = LYSA solubility assay; type: physicochemical; conditions: 0.05 M phosphate buffer, pH 6.5, aqueous buffer, thermodynamic from solid
Method: LYSA study is used to determine the aqueous solubility of tested compounds. Samples are prepared in duplicate from 10 mM DMSO stock solution. After evaporation of DMSO with a centrifugal vacuum evaporator, compounds are dissolved in a 0.05 M phosphate buffer (pH 6.5), stirred for one hr and shaken for two hrs. After one night, the solutions are filtered using a microtiter filter plate. Then the filtrate and its 1/10 dilution are analyzed by HPLC-UV. In addition, a four-point calibration curve is prepared from the 10 mM stock solutions and used for the solubility determination of the compounds. The results are in μg/mL. In case the percentage of sample measured in solution after evaporation divided by the calculated maximum of sample amount is bigger than 80%, the solubility is reported as bigger than this value.

[2] = target: T1, human TLR8 (Homo sapiens, UniProt Q9NR97); assay: HEK293-Blue-hTLR-8 cells assay (SEAP reporter, R848 stimulation); type: cell-based; conditions: HEK293-Blue-hTLR8 cells, R848, 20 hrs
T1 construct: host or cells: HEK293 (HEK-Blue hTLR8)
T1 sequence (Q9NR97 27-1041): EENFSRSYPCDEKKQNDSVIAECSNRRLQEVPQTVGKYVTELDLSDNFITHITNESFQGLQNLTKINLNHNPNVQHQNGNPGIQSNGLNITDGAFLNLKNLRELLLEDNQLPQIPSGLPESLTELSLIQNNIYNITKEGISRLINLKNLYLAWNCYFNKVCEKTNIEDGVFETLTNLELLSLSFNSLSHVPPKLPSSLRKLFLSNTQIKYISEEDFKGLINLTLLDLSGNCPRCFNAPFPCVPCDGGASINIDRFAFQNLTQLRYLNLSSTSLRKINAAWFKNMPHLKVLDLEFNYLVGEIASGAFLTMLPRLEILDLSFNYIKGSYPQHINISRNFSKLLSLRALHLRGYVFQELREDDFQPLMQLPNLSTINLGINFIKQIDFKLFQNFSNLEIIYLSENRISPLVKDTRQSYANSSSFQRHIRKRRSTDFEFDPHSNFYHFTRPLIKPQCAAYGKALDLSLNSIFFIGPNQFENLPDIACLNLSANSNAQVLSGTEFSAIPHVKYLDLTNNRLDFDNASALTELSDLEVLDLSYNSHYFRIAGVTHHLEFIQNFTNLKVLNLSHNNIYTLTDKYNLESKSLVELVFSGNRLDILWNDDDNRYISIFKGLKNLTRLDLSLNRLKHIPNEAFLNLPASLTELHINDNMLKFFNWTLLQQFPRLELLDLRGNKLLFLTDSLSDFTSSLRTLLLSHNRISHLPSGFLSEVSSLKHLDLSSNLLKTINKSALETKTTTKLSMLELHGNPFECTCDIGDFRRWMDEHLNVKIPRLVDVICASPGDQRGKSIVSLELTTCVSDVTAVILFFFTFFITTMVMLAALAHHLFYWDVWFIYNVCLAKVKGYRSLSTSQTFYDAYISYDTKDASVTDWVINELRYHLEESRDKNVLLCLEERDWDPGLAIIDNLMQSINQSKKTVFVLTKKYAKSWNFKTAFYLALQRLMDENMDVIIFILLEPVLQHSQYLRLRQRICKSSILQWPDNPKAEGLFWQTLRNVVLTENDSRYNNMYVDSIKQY
Method: The following tests were carried out in order to determine the activity of the compounds of formula (I) in HEK293-Blue-hTLR-7/8/9 cells assay.
HEK293-Blue-hTLR-8 Cells Assay:
A stable HEK293-Blue-hTLR-8 cell line was purchased from InvivoGen (Cat. #: hkb-htlr8, San Diego, Calif., USA). These cells were originally designed for studying the stimulation of human TLR8 by monitoring the activation of NF-κB. A SEAP (secreted embryonic alkaline phosphatase) reporter gene was placed under the control of the IFN-β minimal promoter fused to five NF-κB and AP-1-binding sites. The SEAP was induced by activating NF-κB and AP-1 via stimulating HEK-Blue hTLR8 cells with TLR8 ligands. Therefore the reporter expression was declined by TLR8 antagonist under the stimulation of a ligand, such as R848, for incubation of 20 hrs. The cell culture supernatant SEAP reporter activity was determined using QUANTI-Blue™ kit (Cat #. rep-qbl, Invivogen, San Diego, Calif., USA) at a wavelength of 640 nm, a detection medium that turns purple or blue in the presence of alkaline phosphatase.
HEK293-Blue-hTLR8 cells were incubated at a density of 250,000˜450,000 cells/mL in a volume of 170 μL in a 96-well plate in Dulbecco's Modified Eagle's medium (DMEM) containing 4.5 g/L glucose, 50 U/mL penicillin, […], […], 2 mM L-glutamine, 10% (v/v) heat-inactivated fetal bovine serum with addition of 20 μL test compound in a serial dilution in the presence of final DMSO at 1% and 10 μL of 60 μM R848 in above DMEM, perform incubation under 37° C. in a CO2 incubator for 20 hrs. Then 20 μL of the supernatant from each well was incubated with 180 μL Quanti-blue substrate solution at 37° C. for 2 hrs and the absorbance was read at 620˜655 nm using a spectrophotometer. The signalling pathway that TLR8 activation leads to downstream NF-KB activation has been widely accepted, and therefore similar reporter assay was modified for evaluating TLR8 antagonist.

| Compound | solubility thermodynamic [1] [µg/mL] | IC50 [2] [nM] |
| --- | --- | --- |
| C[C@@H]1CN(c2ccc(C(F)(F)F)c3ncccc23)C[C@H](C(=O)N2CCC3(CCNC3)C2)O1 (stereo partly shown) [Example 36] | > 595 | 25 |
| C[C@@H]1CN(c2ccc(C(F)(F)F)c3ncccc23)C[C@H](C(=O)NC2CC3CNCC(C3)C2)O1 (stereo partly drawn) [Example 37, (2R,6R)-N-(3-azabicyclo[3.3.1]nonan-7-yl)-6-methyl-4-[8-(trifluoromethyl)-5-quinolyl]morpholine-2-carboxamide] | > 660 | 6 |
| C[C@@H]1CN(c2ccc(I)c3ncccc23)C[C@H](C(=O)NC2CCN(C)CC2)O1 [Example 38, (2R,6R)-4-(8-iodo-5-quinolyl)-6-methyl-N-(1-methyl-4-piperidyl)morpholine-2-carboxamide] | > 650 | < 3 |
| C[C@@H]1CN(c2ccc(I)c3ncccc23)C[C@H](C(=O)NC2CNCC2F)O1 (stereo partly drawn) [Example 40, cis-(2R,6R)-N-[4-fluoropyrrolidin-3-yl]-4-(8-iodo-5-quinolyl)-6-methyl-morpholine-2-carboxamide] | 555 (≈ 1150 µM) | < 3 |
| C[C@@H]1CN(c2ccc(Br)c3ncccc23)C[C@H](C(=O)NC2CNCC2F)O1 (stereo partly drawn) [Example 41, cis-(2R,6R)-4-(8-bromo-5-quinolyl)-N-[4-fluoropyrrolidin-3-yl]-6-methyl-morpholine-2-carboxamide] | > 675 | < 3 |
| C[C@@H]1CN(c2ccc(C(F)(F)F)c3ncccc23)C[C@H](C(=O)NC2C[C@H]3C[C@@H]2CN3)O1 (stereo partly shown) [Example 44] | > 600 | 43 |

Next, values leading:

| solubility thermodynamic [1] [µg/mL] | IC50 [2] [nM] | Compound |
| --- | --- | --- |
| > 625 | < 3 | C[C@@H]1CN(c2ccc(I)c3ncccc23)C[C@H](C(=O)NCC2CN(C)CCO2)O1 (stereo partly drawn) [Example 39, (2R,6R)-4-(8-iodo-5-quinolyl)-6-methyl-N-[(4-methylmorpholin-2-yl)methyl]morpholine-2-carboxamide] |
| > 550 | < 3 | C[C@@H]1CN(c2ccc(Br)c3ncccc23)C[C@H](C(=O)NC2CCN(C)CC2)O1 [Example 42, (2R,6R)-4-(8-bromo-5-quinolyl)-6-methyl-N-(1-methyl-4-piperidyl)morpholine-2-carboxamide] |
| > 560 | < 3 | C#Cc1ccc(N2C[C@@H](C)O[C@@H](C(=O)NC3CCN(C)CC3)C2)c2cccnc12 [Example 43, (2R,6R)-4-(8-ethynyl-5-quinolyl)-6-methyl-N-(1-methyl-4-piperidyl)morpholine-2-carboxamide] |
| > 660 | < 3 | C[C@@H]1CN(c2ccc(C(F)(F)F)c3ncccc23)C[C@H](C(=O)NC2C3CCCC2CNC3)O1 (stereo partly drawn) [Example 45, (2R,6R)-N-(3-azabicyclo[3.3.1]nonan-9-yl)-6-methyl-4-[8-(trifluoromethyl)-5-quinolyl]morpholine-2-carboxamide] |
| > 625 | < 3 | C[C@@H]1CN(c2ccc(C(F)(F)F)c3ncccc23)C[C@H](C(=O)NCC2CNCCO2)O1 (stereo partly drawn) [Example 48, (2R,6R)-6-methyl-N-(morpholin-2-ylmethyl)-4-[8-(trifluoromethyl)-5-quinolyl]morpholine-2-carboxamide] |

Reference: patent publication US20220363665A1, “QUINOLINE COMPOUNDS FOR THE TREATMENT OF AUTOIMMUNE DISEASE” (Hoffmann-La Roche Inc., priority 2019, published 2022)
